pKi: −log10 of the molar value.
Columns and labels:
[1] = target: T1, rat mGluR5 (Rattus norvegicus, UniProt P31424); experiment: MGluR5 receptor binding test ([3H]-M-MPEP displacement, rat cerebro-cortical membrane preparation); conditions: rat mGluR5, [3H]-M-MPEP 2 nM; read-out: mGlu5 Ki
T1 construct: Rat cerebro-cortical membrane preparation was used; from tissue; host or cells: rat cerebral cortex (membrane preparation)
Method: Rat cerebro-cortical membrane preparation was used to determine the binding characteristics of reference compounds and novel compounds to the rat mGluR5. The A18 cell line expressing hmGluR5a (purchased from Euroscreen) was used to determine binding characteristics of the chemical compounds to the human mGluR5a receptor. [3H]-M-MPEP (2 nM) was used as radioligand. The nonspecific binding was determined in the presence of 10 μM M-MPEP.

[2] = target: T2, rat mGluR1 (Rattus norvegicus, UniProt P23385); experiment: MGluR1 receptor binding test ([3H]R214127 displacement, rat cerebellar membrane preparation); conditions: rat mGluR1, [3H]R214127 3 nM; read-out: mGlu1 Ki
T2 construct: rat cerebellar membrane preparation was used; from tissue; host or cells: rat cerebellum (membrane preparation)
T2 sequence (P23385 19-1199): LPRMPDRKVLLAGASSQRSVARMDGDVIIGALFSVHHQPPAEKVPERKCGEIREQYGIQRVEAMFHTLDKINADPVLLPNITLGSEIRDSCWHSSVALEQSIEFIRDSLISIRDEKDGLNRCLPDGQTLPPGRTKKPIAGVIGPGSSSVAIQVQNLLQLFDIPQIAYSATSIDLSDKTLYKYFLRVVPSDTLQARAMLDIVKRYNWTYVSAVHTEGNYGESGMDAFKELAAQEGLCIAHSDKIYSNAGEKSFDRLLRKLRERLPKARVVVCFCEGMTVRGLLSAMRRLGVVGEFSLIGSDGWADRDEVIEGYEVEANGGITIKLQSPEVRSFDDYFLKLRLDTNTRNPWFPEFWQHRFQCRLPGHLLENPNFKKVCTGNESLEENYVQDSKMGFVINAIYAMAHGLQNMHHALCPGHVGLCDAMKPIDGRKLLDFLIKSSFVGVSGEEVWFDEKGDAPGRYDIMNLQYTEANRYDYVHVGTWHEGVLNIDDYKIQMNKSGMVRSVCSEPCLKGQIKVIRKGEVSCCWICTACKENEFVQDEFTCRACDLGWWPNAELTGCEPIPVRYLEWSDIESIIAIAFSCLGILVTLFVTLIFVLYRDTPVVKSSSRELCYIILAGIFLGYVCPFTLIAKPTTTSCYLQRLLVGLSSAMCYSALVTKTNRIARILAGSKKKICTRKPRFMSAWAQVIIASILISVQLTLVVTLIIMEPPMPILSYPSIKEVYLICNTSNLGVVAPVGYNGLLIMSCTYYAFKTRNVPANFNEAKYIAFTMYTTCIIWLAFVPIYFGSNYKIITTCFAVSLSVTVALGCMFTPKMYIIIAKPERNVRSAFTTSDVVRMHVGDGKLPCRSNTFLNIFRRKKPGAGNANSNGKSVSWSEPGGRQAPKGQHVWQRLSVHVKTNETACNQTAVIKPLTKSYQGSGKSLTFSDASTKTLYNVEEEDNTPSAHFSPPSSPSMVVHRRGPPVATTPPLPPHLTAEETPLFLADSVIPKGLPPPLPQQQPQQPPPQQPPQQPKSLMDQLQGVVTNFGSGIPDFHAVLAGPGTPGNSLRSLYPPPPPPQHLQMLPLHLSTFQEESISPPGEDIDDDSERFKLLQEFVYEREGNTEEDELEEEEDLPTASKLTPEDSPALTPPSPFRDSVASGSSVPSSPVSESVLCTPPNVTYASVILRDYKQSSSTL
Method: MGluR1 receptor binding tests were performed according to modified method of Lavreysen et al. (Mol. Pharm., 2003, 63, 1082). Based on the high homology between the human and rat mGluR1 receptors, rat cerebellar membrane preparation was used to determine the binding characteristics of reference compounds and novel compounds to the rat mGluR1. [3H]R214127 (3 nM) was used as radioligand and the nonspecific binding was determined in the presence of 1 μM of R214127.
IC-50 values were determined from displacement curves by nonlinear regression analysis and were converted to Ki values using the equation method of Cheng and Prusoff (Biochem. Pharmacol., 1973, 22, 3099).

T1 sequence (P31424 21-1203): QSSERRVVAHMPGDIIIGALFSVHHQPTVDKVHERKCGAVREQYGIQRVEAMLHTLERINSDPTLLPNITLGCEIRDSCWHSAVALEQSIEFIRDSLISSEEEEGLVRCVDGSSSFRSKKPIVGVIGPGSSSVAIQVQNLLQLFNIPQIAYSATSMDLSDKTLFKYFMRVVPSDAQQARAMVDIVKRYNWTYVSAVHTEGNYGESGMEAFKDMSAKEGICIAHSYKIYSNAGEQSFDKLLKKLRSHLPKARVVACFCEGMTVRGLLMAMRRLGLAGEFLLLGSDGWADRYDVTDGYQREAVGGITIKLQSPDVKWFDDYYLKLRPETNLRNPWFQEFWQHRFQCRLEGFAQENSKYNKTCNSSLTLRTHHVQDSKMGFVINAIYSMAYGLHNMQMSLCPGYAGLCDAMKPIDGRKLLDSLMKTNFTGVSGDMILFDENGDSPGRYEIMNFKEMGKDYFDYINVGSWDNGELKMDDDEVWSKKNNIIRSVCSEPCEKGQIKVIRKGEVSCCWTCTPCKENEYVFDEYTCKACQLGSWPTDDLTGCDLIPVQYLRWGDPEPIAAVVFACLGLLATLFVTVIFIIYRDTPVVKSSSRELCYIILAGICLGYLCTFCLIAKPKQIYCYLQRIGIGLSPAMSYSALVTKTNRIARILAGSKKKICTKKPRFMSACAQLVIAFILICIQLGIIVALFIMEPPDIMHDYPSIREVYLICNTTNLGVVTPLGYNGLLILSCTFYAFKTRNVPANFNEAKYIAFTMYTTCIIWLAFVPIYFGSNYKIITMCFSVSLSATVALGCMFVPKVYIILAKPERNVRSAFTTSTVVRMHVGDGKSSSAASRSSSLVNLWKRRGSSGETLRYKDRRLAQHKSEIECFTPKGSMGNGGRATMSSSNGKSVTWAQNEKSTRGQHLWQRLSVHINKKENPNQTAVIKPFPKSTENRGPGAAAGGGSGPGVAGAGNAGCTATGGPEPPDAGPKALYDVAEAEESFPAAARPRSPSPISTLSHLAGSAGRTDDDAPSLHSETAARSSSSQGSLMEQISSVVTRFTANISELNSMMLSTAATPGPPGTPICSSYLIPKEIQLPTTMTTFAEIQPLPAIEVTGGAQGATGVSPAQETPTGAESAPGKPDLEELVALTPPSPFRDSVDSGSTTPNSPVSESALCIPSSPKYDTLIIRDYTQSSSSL

Row | pKi [1] | pKi [2] | Structure (SMILES)
1 | > 6.70 | > 6.70 | O=S(=O)(c1ccc(F)c(Cl)c1)c1cnc2cc(Cl)ccc2c1-c1ccccc1F [Compound 233]
2 | > 6.70 | 6.30 to 6.70 | N#Cc1cccc(S(=O)(=O)c2cnc3ccc(F)cc3c2-c2ccc(Cl)cc2)c1 [Compound 136]
3 | < 6.30 | < 6.30 | COc1cccc(-c2c(S(=O)(=O)c3cccc(Cl)c3)cnc3ccc(F)cc23)c1 [Compound 34]
4 | > 6.70 | < 6.30 | N#Cc1cc(F)cc(S(=O)(=O)c2cnc3cc(F)ccc3c2-c2ccc(F)cc2)c1 [Compound 218]
5 | > 6.70 | < 6.30 | N#Cc1cc(S(=O)(=O)c2cnc3cc(F)ccc3c2-c2ccc(F)cc2)ccc1F [Compound 275]
6 | > 6.70 | 6.30 to 6.70 | O=S(=O)(c1ccc(F)c(Cl)c1)c1cnc2cc(F)ccc2c1-c1ccc(Cl)cc1 [Compound 102]
7 | > 6.70 | < 6.30 | N#Cc1cc(S(=O)(=O)c2cnc3cc(F)ccc3c2-c2cccc(F)c2)ccc1F [Compound 216]
8 | > 6.70 | 6.30 to 6.70 | O=S(=O)(c1cc(Cl)cc(Cl)c1)c1cnc2cc(F)ccc2c1-c1cccc(Cl)c1 [Compound 156]
9 | > 6.70 | < 6.30 | COc1ccc(-c2c(S(=O)(=O)c3ccc(F)cc3)cnc3c(F)cccc23)cc1 [Compound 52]
10 | > 6.70 | < 6.30 | O=S(=O)(c1ccc(F)cc1)c1cnc2cc(F)ccc2c1-c1ccc(Cl)cc1 [Compound 76]
11 | > 6.70 | < 6.30 | COc1cccc(-c2c(S(=O)(=O)c3ccc(OC)c(Cl)c3)cnc3ccc(F)cc23)c1 [Compound 75]
12 | 6.30 to 6.70 | < 6.30 | O=S(=O)(c1ccc(Cl)cc1)c1cnc2c(Cl)cccc2c1-c1cccc(Cl)c1 [Compound 6]
13 | > 6.70 | < 6.30 | COc1ccc(-c2c(S(=O)(=O)c3ccc(OC)cc3)cnc3ccc(F)cc23)cc1 [Compound 163]
14 | > 6.70 | < 6.30 | COc1ccc(S(=O)(=O)c2cnc3ccc(F)cc3c2-c2ccc(Cl)cc2)cc1 [Compound 29]
15 | > 6.70 | < 6.30 | COc1cccc(S(=O)(=O)c2cnc3cc(F)ccc3c2-c2ccc(F)cc2)c1 [Compound 44]
16 | 6.30 to 6.70 | < 6.30 | O=S(=O)(c1cc(F)cc(F)c1)c1cnc2ccc(F)cc2c1-c1ccc(F)cc1 [Compound 66]
17 | > 6.70 | < 6.30 | O=S(=O)(c1ccc(F)c(F)c1)c1cnc2ccccc2c1-c1ccc(Cl)c(Cl)c1 [Compound 260]
18 | > 6.70 | < 6.30 | Cc1ccc(S(=O)(=O)c2cnc3cc(F)ccc3c2-c2cccc(Cl)c2)cc1C [Compound 17, 4-(3-chloro-phenyl)-3-(3,4-dimethyl-benzenesulfonyl)-7-fluoro-quinoline]
19 | > 6.70 | < 6.30 | N#Cc1cccc(S(=O)(=O)c2cnc3c(F)cccc3c2-c2cccc(Cl)c2)c1 [Compound 246]
20 | 6.30 to 6.70 | < 6.30 | COc1ccc(S(=O)(=O)c2cnc3cc(F)ccc3c2-c2ccc(F)cc2)cc1 [Compound 14]
21 | > 6.70 | 6.30 to 6.70 | O=S(=O)(c1ccc(F)c(Cl)c1)c1cnc2ccc(F)cc2c1-c1ccc(F)cc1 [Compound 155]
22 | > 6.70 | < 6.30 | COc1ccc(-c2c(S(=O)(=O)c3ccc(C)c(F)c3)cnc3ccc(F)cc23)cc1 [Compound 129]
23 | > 6.70 | 6.30 to 6.70 | N#Cc1cccc(S(=O)(=O)c2cnc3c(F)c(Cl)ccc3c2-c2cccc(Cl)c2)c1 [Compound 253]
24 | > 6.70 | < 6.30 | N#Cc1cc(F)cc(S(=O)(=O)c2cnc3c(N)cccc3c2-c2ccc(F)cc2)c1 [Compound 278]

Row | pKi [1] | pKi [2] | Structure (SMILES)
25 | > 6.70 | < 6.30 | Cc1ccc(S(=O)(=O)c2cnc3c(F)cccc3c2-c2cccc(Cl)c2)cc1F [Compound 109]
26 | > 6.70 | < 6.30 | COc1ccc(-c2c(S(=O)(=O)c3cccc(C#N)c3)cnc3ccc(F)cc23)cc1 [Compound 137]
27 | > 6.70 | < 6.30 | N#Cc1cccc(S(=O)(=O)c2cnc3cc(Cl)ccc3c2-c2ccc(Cl)cc2)c1 [Compound 177]
28 | > 6.70 | < 6.30 | COc1ccc(S(=O)(=O)c2cnc3c(F)cccc3c2-c2cccc(F)c2)cc1 [Compound 55]
29 | > 6.70 | 6.30 to 6.70 | O=S(=O)(c1ccc(F)c(Cl)c1)c1cnc2c(F)cccc2c1-c1ccc(F)cc1 [Compound 212]
30 | > 6.70 | < 6.30 | COc1cccc(-c2c(S(=O)(=O)c3cc(Cl)cc(Cl)c3)cnc3cc(F)ccc23)c1 [Compound 82]
31 | > 6.70 | > 6.70 | O=S(=O)(c1ccc(F)cc1)c1cnc2c(F)cccc2c1-c1cccc(Cl)c1 [Compound 20]
32 | > 6.70 | 6.30 to 6.70 | O=S(=O)(c1cccc(F)c1)c1cnc2c(F)cccc2c1-c1ccc(F)cc1 [Compound 63]
33 | > 6.70 | < 6.30 | O=S(=O)(c1cccc(F)c1)c1cnc2cc(F)ccc2c1-c1ccc(F)cc1 [Compound 16]
34 | < 6.30 | < 6.30 | COc1ccc(S(=O)(=O)c2cnc3ccc(F)cc3c2-c2cccc(Cl)c2)cc1OC [Compound 70]
35 | 6.30 to 6.70 | < 6.30 | O=S(=O)(c1ccc(Cl)cc1)c1cnc2c(Cl)cccc2c1-c1ccc(Cl)cc1 [Compound 5]
36 | > 6.70 | < 6.30 | COc1ccc(S(=O)(=O)c2cnc3c(F)cccc3c2-c2cccc(Cl)c2)cc1 [Compound 53, 4-(3-chloro-phenyl)-8-fluoro-3-(4-methoxy-benzenesulfonyl)-quinoline]
37 | > 6.70 | 6.30 to 6.70 | O=S(=O)(c1ccc(F)c(F)c1)c1cnc2c(F)cccc2c1-c1ccc(Cl)cc1 [Compound 120]
38 | > 6.70 | 6.30 to 6.70 | N#Cc1cccc(S(=O)(=O)c2cnc3ccc(F)cc3c2-c2ccc(F)cc2)c1 [Compound 69]
39 | > 6.70 | < 6.30 | N#Cc1cc(S(=O)(=O)c2cnc3ccccc3c2-c2ccc(Cl)cc2)ccc1F [Compound 273]
40 | > 6.70 | < 6.30 | Cc1ccc(S(=O)(=O)c2cnc3ccc(F)cc3c2-c2ccc(F)cc2)cc1C [Compound 148]
41 | > 6.70 | < 6.30 | COc1ccc(S(=O)(=O)c2cnc3cc(F)ccc3c2-c2ccc(F)cc2)cc1Cl [Compound 49]
42 | > 6.70 | 6.30 to 6.70 | O=S(=O)(c1ccc(F)c(Cl)c1)c1cnc2c(F)cccc2c1-c1ccc(Cl)cc1 [Compound 208]
43 | > 6.70 | > 6.70 | COc1ccc(S(=O)(=O)c2cnc3c(F)cccc3c2-c2ccc(Cl)cc2)cc1 [Compound 54]
44 | > 6.70 | < 6.30 | COc1cccc(S(=O)(=O)c2cnc3ccc(F)cc3c2-c2cccc(Cl)c2)c1 [Compound 72]
45 | > 6.70 | < 6.30 | O=S(=O)(c1ccc(F)c(F)c1)c1cnc2c(F)c(Cl)ccc2c1-c1cccc(F)c1 [Compound 196]
46 | < 6.30 | < 6.30 | O=S(=O)(c1ccc(F)cc1)c1cnc2ccc(Cl)cc2c1-c1ccc(Cl)cc1 [Compound 2]
47 | > 6.70 | < 6.30 | O=S(=O)(c1ccc(F)c(Cl)c1)c1cnc2c(F)c(Cl)ccc2c1-c1ccc(F)cc1 [Compound 205]
48 | 6.30 to 6.70 | < 6.30 | COc1ccc(S(=O)(=O)c2cnc3cc(F)ccc3c2-c2cccc(F)c2)cc1 [Compound 12]
